Source: ChEMBL document CHEMBL3632499, “Synthesis and Antiproliferative Activity Evaluation of the Disulfide-Containing Cyclic Peptide Thiochondrilline C and Derivatives” (J Nat Prod, 2015)
Positions of bridges follow the written chain, without caps; N, C: chain ends. Non-standard residues stand in square brackets, D forms with d. Residues, ends and D or L forms follow the SMILES beside them. Chains are numbered I, II in the order given. *: point of attachment. Quinaldoyl(3-OH) = O=C(c1nc2ccccc2cc1O)*; NMeC = CN[C@@H](CS)C(=O)O

Tested on: A549
Test: Cytotoxicity against human A549 cells
Type: functional, cell-based

Compound	EC50 [nM]
COC(=O)[C@H](CSC)N(C)C(=O)[C@@H]1CSSC[C@@H](NC(=O)c2nc3ccccc3cc2O)C(=O)NCC(=O)N1C ({Quinaldoyl(3-OH)}-[dC]G[NMeC][NMeC](Me)-OMe; disulfide 1-3)	2900
CSC[C@H]1C(=O)SC[C@@H](NC(=O)c2nc3ccccc3cc2O)C(=O)NCC(=O)N(C)[C@H]2CSSC[C@@H](C(=O)N1C)N(C)C(=O)CNC(=O)[C@H](NC(=O)c1nc3ccccc3cc1O)CSC(=O)[C@H](CSC)N(C)C2=O [THIOCORALINE A] (I: {Quinaldoyl(3-OH)}-[dC]G[NMeC][NMeC](Me) / II: {Quinaldoyl(3-OH)}-[dC]G[NMeC][NMeC](Me); thioester I:1-II:C, I:C-II:1; disulfide I:3-II:3)	10
